Consider 43 molecules from US10034886B2, “GLP-1 receptor modulators” (Celgene International II SÀRL, priority 2014, dated 2018).

As usually defined, the EC50 is the concentration giving half of the maximal effect.

Some results are limits rather than exact numbers.

For the test, the target named is T1, GLP-1R (Homo sapiens, UniProt P43220).
T1 construct: host or cells: GLP-1R CRE-bla CHO-K1 cells
T1 sequence (P43220 24-463): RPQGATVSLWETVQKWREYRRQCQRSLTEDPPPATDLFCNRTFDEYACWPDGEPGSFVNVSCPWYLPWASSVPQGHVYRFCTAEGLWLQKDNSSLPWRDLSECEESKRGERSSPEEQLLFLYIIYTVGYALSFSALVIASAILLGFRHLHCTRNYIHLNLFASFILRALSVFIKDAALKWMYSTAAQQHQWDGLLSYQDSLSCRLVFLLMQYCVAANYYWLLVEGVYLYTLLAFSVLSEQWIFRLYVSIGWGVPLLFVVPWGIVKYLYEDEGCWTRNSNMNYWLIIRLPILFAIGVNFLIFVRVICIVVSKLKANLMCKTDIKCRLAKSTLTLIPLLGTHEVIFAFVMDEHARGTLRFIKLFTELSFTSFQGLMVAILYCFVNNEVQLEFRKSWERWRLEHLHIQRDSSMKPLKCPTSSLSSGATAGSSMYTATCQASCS
T1 sequence (P01275 100-127 partner limits assumed): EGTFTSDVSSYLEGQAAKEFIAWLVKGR
Kind of test: EC20 GLP-1(9-36) PAM cAMP assay: dose response of compound in the presence of fixed concentration of GLP-1(9-36). It counts as cell-based. Conditions: GLP-1R CRE-bla CHO-K1 cells, compound dose response with fixed concentration of GLP-1(9-36), read-out: EC20 GLP-1(9-36) PAM EC50. The method in brief:
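Positive allosteric modulation read as cAMP accumulation: compound titrations (12 points) combined with an EC20 level of GLP-1(9-36) on CHO-K1 GLP-1R CRE-bla cells, IBMX present, 30 min, 37 °C, pH 7.4 buffer. Luminescence converted to cAMP via standards; non-linear fit gave EC50 and Emax.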
For orientation: Cyclic AMP is a second messenger, typically raised through Gs and lowered through Gi signalling.
On to `CC[C@H]1CC[C@H](c2ccc(-c3cnc(-c4ccc(C[C@H](NC(=O)c5ccc(C(C)(C)C)s5)C(=O)N[C@H](Cc5c[nH]cn5)C(=O)O)cc4)nc3)cc2)CC1` [Compound 1322], for which the EC50 was below 800 nM.
In the case of `CC[C@H]1CC[C@H](c2ccc(-c3cnc(-c4ccc(C[C@H](NC(=O)c5ccc(C(C)(C)C)s5)C(=O)NCC(=O)O)cc4)nc3)cc2)CC1` [Compound 1323] it was below 800 nM; in that of `CC[C@H]1CC[C@H](c2ccc(-c3cnc(-c4ccc(C[C@H](NC(=O)c5ccc(C(C)(C)C)s5)C(=O)NCCC(=O)O)cc4)nc3)cc2)CC1` [Compound 1324], below 800 nM.
On to `CC[C@H]1CC[C@H](c2ccc(-c3cnc(-c4ccc(C[C@H](NC(=O)c5ccc(C(C)(C)C)s5)C(=O)N[C@@H](CC(N)=O)C(=O)O)cc4)nc3)cc2)CC1` [Compound 1325], for which the concentration for a half-maximal effect (EC50) is below 800 nM.
On to `CC[C@H]1CC[C@H](c2ccc(-c3cnc(-c4ccc(C[C@H](NC(=O)c5ccc(C(C)(C)C)s5)C(=O)N[C@@H](CO)C(=O)O)cc4)nc3)cc2)CC1` [Compound 1326], for which the 50% effective concentration (EC50) was below 800 nM.
In the case of `CC[C@H]1CC[C@H](c2ccc(-c3cnc(-c4ccc(C[C@H](NC(=O)c5ccc(C(C)(C)C)s5)C(=O)N[C@H](C(=O)O)[C@@H](C)O)cc4)nc3)cc2)CC1` [Compound 1327] it was below 800 nM.
In the case of `CC[C@H]1CC[C@H](c2ccc(-c3cnc(-c4ccc(C[C@H](NC(=O)c5ccc(C(C)(C)C)s5)C(=O)N[C@H](C(=O)O)C(C)C)cc4)nc3)cc2)CC1` [Compound 1328] it was 800 to 2500 nM; in that of `COc1ccc(-c2ccc(-c3cnc(-c4ccc(C[C@H](NC(=O)c5ccc(C(C)(C)C)s5)C(=O)N5CC(C(=O)O)C5)cc4)nc3)c(F)c2)cc1` [Compound 1329], below 800 nM.
The result for `CCOc1ccc(-c2ccc(-c3cnc(-c4ccc(C[C@H](NC(=O)c5ccc(C(C)(C)C)s5)C(=O)N5CC(C(=O)O)C5)cc4)nc3)c(F)c2)cc1` [Compound 1330] reads below 800 nM; that for `CCCOc1ccc(-c2ccc(-c3cnc(-c4ccc(C[C@H](NC(=O)c5ccc(C(C)(C)C)s5)C(=O)N5CC(C(=O)O)C5)cc4)nc3)c(F)c2)cc1` [Compound 1331], below 800 nM; that for `CCCCOc1ccc(-c2ccc(-c3cnc(-c4ccc(C[C@H](NC(=O)c5ccc(C(C)(C)C)s5)C(=O)N5CC(C(=O)O)C5)cc4)nc3)c(F)c2)cc1` [Compound 1332], below 800 nM.
As to `CC[C@H]1CC[C@H](c2ccc(-c3ccc(-c4ccc(C[C@H](NC(=O)c5ccc(C(C)(C)C)s5)C(=O)O)cc4)nc3)cc2)CC1` [Compound 1333, (S)-2-(5-(tert-butyl)thiophene-2-carboxamido)-3-(4-(5-(4-((1r,4r)-4-ethylcyclohexyl)phenyl)pyridin-2-yl)phenyl)propanoic acid], the EC50 is 2500 to 5000 nM.
In the case of `CC[C@H]1CC[C@H](c2ccc(-c3ccc(-c4ccc(C[C@H](NC(=O)c5ccc(C(C)(C)C)s5)C(=O)N5CC(C(=O)O)C5)cc4)nc3)cc2)CC1` [Compound 1334] it was below 800 nM.
As for `CC[C@H]1CC[C@H](c2ccc(-c3ccc(-c4ccc(C[C@H](NC(=O)c5ccc(C(C)(C)C)s5)C(=O)O)cc4)cn3)cc2)CC1` [Compound 1335], the concentration giving a half-maximal response (EC50) was in the range of 2500 to 5000 nM.
The result for `CC[C@H]1CC[C@H](c2ccc(-c3cnc(-c4ccc(C[C@H](NC(=O)c5ccc(C(C)(C)C)s5)C(=O)O)cc4)nn3)cc2)CC1` [Compound 1336, (S)-2-(5-(tert-butyl)thiophene-2-carboxamido)-3-(4-(6-(4-((1r,4r)-4-ethylcyclohexyl)phenyl)-1,2,4-triazin-3-yl)phenyl)propanoic acid] reads 2500 to 5000 nM.
On to `CC[C@H]1CC[C@H](c2ccc(-c3cnc(-c4ccc(C[C@H](NC(=O)c5ccc(C(C)(C)C)s5)C(=O)N5CC(C(=O)O)C5)cc4)nn3)cc2)CC1` [Compound 1337], for which the concentration giving a half-maximal response (EC50) is below 800 nM.
In the case of `Cc1ccc(S(=O)(=O)N2CC=C(c3cnc(-c4ccc(C[C@H](NC(=O)c5ccc(C(C)(C)C)s5)C(=O)N[C@H](C)C(=O)O)cc4)nc3)CC2)cc1` [Compound 1338] it was 2500 to 5000 nM.
In the case of `CC[C@H]1CC[C@H](c2ccc(-c3cnc(-c4ccc(C[C@H](NC(=O)c5ccc(C(C)(C)C#N)s5)C(=O)N5CC(C(=O)O)C5)cc4)nc3)cc2)CC1` [Compound 1339] it was below 800 nM; in that of `CC[C@H]1CC[C@H](c2ccc(-c3cnc(-c4ccc(C[C@H](NC(=O)c5ccc(C6(C#N)CC6)s5)C(=O)N5CC(C(=O)O)C5)cc4)nc3)cc2)CC1` [Compound 1340], below 800 nM.
The result for `CC[C@H]1CC[C@H](c2ccc(-c3ccc(-c4ccc(C[C@H](NC(=O)c5ccc(C(C)(C)C)s5)C(=O)N5CC(C(=O)O)C5)cc4)cn3)cc2)CC1` [Compound 1341] reads below 800 nM; that for `CCc1ccc(C(=O)N[C@@H](Cc2ccc(-c3ncc(-c4ccc([C@H]5CC[C@H](CC)CC5)cc4)cn3)cc2)C(=O)N2CC(C(=O)O)C2)nc1` [Compound 1342], 800 to 2500 nM.
In the case of `CCC[C@H]1CC[C@H](c2ccc(-c3cnc(-c4ccc(C[C@H](NC(=O)c5ccc(C(C)(C)C)s5)C(=O)N5CC(C(=O)O)C5)cc4)nc3)cc2)CC1` [Compound 1343, 1-((S)-2-(5-(tert-butyl)thiophene-2-carboxamido)-3-(4-(5-(4-((1s,4r)-4-propylcyclohexyl)phenyl)pyrimidin-2-yl)phenyl)propanoyl)azetidine-3-carboxylic acid], the EC50 is below 800 nM.
The result for `CC1(C)CCC(c2ccc(-c3cnc(-c4ccc(C[C@H](NC(=O)c5ccc(C(C)(C)C)s5)C(=O)O)cc4)nc3)cc2)CC1` [Compound 1344] reads 800 to 2500 nM.
In the case of `CC(C)(C)c1ccc(C(=O)N[C@@H](Cc2ccc(-c3ncc(-c4ccc(C5CCCCC5)cc4)cn3)cc2)C(=O)O)s1` [Compound 1345] it was 800 to 2500 nM.
The result for `CCC[C@H]1CC[C@H](c2ccc(-c3cnc(-c4ccc(C[C@H](NC(=O)c5ccc(C(C)(C)C)s5)C(=O)O)cc4)nc3)cc2)CC1` [Compound 1346] reads below 800 nM; that for `CC(C)(C)c1ccc(C(=O)N[C@@H](Cc2ccc(-c3ncc(-c4ccc(-c5cccc(C(F)(F)F)c5)cc4)cn3)cc2)C(=O)O)s1` [Compound 1347], below 800 nM.
`CC(C)(C)c1ccc(-c2ccc(-c3cnc(-c4ccc(C[C@H](NC(=O)c5ccc(C(C)(C)C)s5)C(=O)O)cc4)nc3)cc2)cc1` [Compound 1348]: the 50% effective concentration (EC50) was 2500 to 5000 nM.
The result for `CCOc1ccc(-c2cnc(-c3ccc(C[C@H](NC(=O)c4ccc(C(C)(C)C)s4)C(=O)O)cc3)nc2)cc1` [Compound 1349] reads 5000 to 10000 nM; that for `CC(C)(C)COc1ccc(-c2cnc(-c3ccc(C[C@H](NC(=O)c4ccc(C(C)(C)C)s4)C(=O)O)cc3)nc2)cc1` [Compound 1350], 2500 to 5000 nM.
In the case of `CC(C)(C)c1ccc(C(=O)N[C@@H](Cc2ccc(-c3ncc(-c4ccc(-c5ccccc5)c(F)c4)cn3)cc2)C(=O)O)s1` [Compound 1351], the 50% effective concentration (EC50) lay in the range of 2500 to 5000 nM.
In the case of `CC(=O)c1ccc(-c2ccc(-c3cnc(-c4ccc(C[C@H](NC(=O)c5ccc(C(C)(C)C)s5)C(=O)O)cc4)nc3)cc2)cc1` [Compound 1352] it was 800 to 2500 nM; in that of `CC(C)(C)c1ccc(C(=O)N[C@@H](Cc2ccc(-c3ncc(-c4ccc(OCCN5CCCCC5)cc4)cn3)cc2)C(=O)O)s1` [Compound 1353], 5000 to 10000 nM; in that of `CC(C)(C)c1ccc(C(=O)N[C@@H](Cc2ccc(-c3ncc(-c4ccc(-c5ccc(F)cc5)cc4)cn3)cc2)C(=O)O)s1` [Compound 1354], 2500 to 5000 nM.
The result for `CC(C)(C)c1ccc(C(=O)N[C@@H](Cc2ccc(-c3ncc(-c4ccc(-c5ccc(C(F)(F)F)cc5)cc4)cn3)cc2)C(=O)O)s1` [Compound 1355, (S)-2-(5-(tert-butyl)thiophene-2-carboxamido)-3-(4-(5-(4′-(trifluoromethyl)-[1,1′-biphenyl]-4-yl)pyrimidin-2-yl)phenyl)propanoic acid] reads below 800 nM; that for `CC(C)(C)c1ccc(C(=O)N[C@@H](Cc2ccc(-c3ncc(-c4ccc(-c5ccc(OC(F)(F)F)cc5)cc4)cn3)cc2)C(=O)O)s1` [Compound 1356, (S)-2-(5-(tert-butyl)thiophene-2-carboxamido)-3-(4-(5-(4′-(trifluoromethoxy)-[1,1′-biphenyl]-4-yl)pyrimidin-2-yl)phenyl)propanoic acid], below 800 nM.
In the case of `CC(C)(C)c1ccc(C(=O)N[C@@H](Cc2ccc(-c3ncc(-c4ccc([C@H]5CC[C@@H](C)CC5)cc4)cn3)cc2)C(=O)O)s1` [Compound 1357] it was 2500 to 5000 nM; in that of `CC(C)(C)c1ccc(C(=O)N[C@@H](Cc2ccc(-c3ncc(-c4ccc([C@H]5CC[C@H](C)CC5)cc4)cn3)cc2)C(=O)O)s1` [Compound 1358], 2500 to 5000 nM.
In the case of `CC(C)c1ccc(-c2ccc(-c3cnc(-c4ccc(C[C@H](NC(=O)c5ccc(C(C)(C)C)s5)C(=O)O)cc4)nc3)c(F)c2)cc1` [Compound 1359], the 50% effective concentration (EC50) is 800 to 2500 nM.
Regarding `CCCOc1ccc(-c2ccc(-c3cnc(-c4ccc(C[C@H](NC(=O)c5ccc(C(C)(C)C)s5)C(=O)O)cc4)nc3)c(F)c2)cc1` [Compound 1360], the EC50 was in the range of 2500 to 5000 nM.
The result for `CCCCc1ccc(-c2ccc(-c3cnc(-c4ccc(C[C@H](NC(=O)c5ccc(C(C)(C)C)s5)C(=O)O)cc4)nc3)c(F)c2)cc1` [Compound 1361] reads 800 to 2500 nM; that for `CC[C@H]1CC[C@@H](c2ccc(-c3cnc(-c4ccc(C[C@H](NC(=O)c5ccc(C(C)(C)C)s5)C(=O)O)cc4)nc3)c(F)c2)CC1` [Compound 1362], below 800 nM; that for `CC[C@H]1CC[C@H](c2ccc(-c3cnc(-c4ccc(C[C@H](NC(=O)c5ccc(C(C)(C)C)s5)C(=O)O)cc4)nc3)c(F)c2)CC1` [Compound 1363], below 800 nM.
`CC(C)(C)c1ccc(C(=O)N[C@@H](Cc2ccc(-c3ncc(-c4ccc(-c5ccc(C(F)(F)F)cc5)cc4F)cn3)cc2)C(=O)O)s1` [Compound 1364]: the EC50 is below 800 nM.
